Reference: PubChem BioAssay AID489024 (Sanford-Burnham Center for Chemical Genomics, 2010)
pEC50: −log10 of the molar value. Activity calls are given as the source filed them.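 Rule for the calls: active = compounds whose mean EC50, the dose giving half the maximal reporter activation, is at or below a set limit; inactive = the rest.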

Each molecule was assayed against CHO-CHOP luciferase reporter, UPR activation, luminescence (assay: activators of PERK-eIF2a-CHOP UPR arm, confirmation, CHO-CHOP cells, luciferase luminescence (AID 489024);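 note: compounds added alone to reporter cells with no tunicamycin stress co-treatment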).
For `CCOC(=O)C1=C(CCl)NC(=O)NC1c1ccc2c(c1)OCO2` (stereo unspecified), the EC50 was > 80 µM (inactive). For `Nc1cccc(-c2nc3cc(S(=O)(=O)c4ccc5oc(-c6cccc(N)c6)nc5c4)ccc3o2)c1`, the EC50 was “inactive”. `Oc1ccc(CN2CCN(Cc3ccccc3)CC2)c2cccnc12` was tested, and the EC50 was “inactive”. In the case of `O=C1C=CC(=O)N1c1ccc(N2CCCCC2)cc1`, the EC50 was > 80 µM (inactive). `C/C(=N\NC(=O)C(c1ccccc1)c1ccccc1)c1ccccn1` showed a pEC50 of 4.80. For `S=C(Nc1ccccc1)Nc1nccs1`, the pEC50 was 4.76. `O=C(NCCc1ccccc1)c1coc(=O)c(Br)c1` was tested, and the pEC50 was 5.11. Work on `O=C(N/N=C(\c1ccccc1)c1ccccn1)c1cccc([N+](=O)[O-])c1` yielded a pEC50 of 5.13. `CC(C)(C)N1CSC(=S)N(Cc2ccccc2)C1` was tested, and the pEC50 was 4.99. `COC(=O)c1ccc(COc2ccccc2/C=C(\C#N)C(=O)Nc2c(C)cccc2C)cc1` gave a pEC50 of 4.93. For `O=C(Cn1ncc(Cl)c(Cl)c1=O)c1ccc2c(c1)OCCO2`, the pEC50 was 4.87. With `CC1=NOC(=O)/C1=C\c1ccc(-c2cccc(Cl)c2)o1` the pEC50 was 4.88. `CCOC(=O)c1c2ccc(OCC(=O)N/N=C/c3ccc(C)cc3)cc2n2ccccc12` was tested, and the EC50 was > 80 µM (inactive). For `CC1=CC(C)(C)Nc2ccc(OC(=O)CN3C(=O)CCC3=O)cc21`, the pEC50 was 5.02. `COc1ccc(-c2ccc(-c3nc4c(c(=O)[nH]c(=O)n4Cc4ccccc4)n3C)o2)c([N+](=O)[O-])c1` was tested, and the EC50 was > 80 µM (inactive). `CS(=O)(=O)c1nc(-c2ccc(Br)cc2)cc(-c2ccccc2)c1C#N` gave a pEC50 of 5.29. `COc1ccc(N2C(=O)/C(=C/c3cccs3)C(=O)NC2=S)cc1` gave a pEC50 of 5.04. In the case of `Cc1ccc(/C=C/C(=O)c2ccc([N+](=O)[O-])o2)cc1`, the pEC50 was 5.19. With `COc1ccc(OC)c(N=Cc2c(O)c3ccccc3oc2=O)c1` the pEC50 was 5.12. `CCSC1(SCC)N=C(N)C2(C#N)C(c3ccc(F)cc3)C12C#N` (stereo unspecified) was tested, and the pEC50 was 4.96. `O=C(Nc1ccc(C(F)(F)F)cc1)c1cc(-c2cccnc2)nc2ccc(Br)cc12` gave a pEC50 of 5.06. For `COc1ccc(/C=C2\CN(Cc3ccccc3)C/C(=C\c3ccc(OC)c(O)c3)C2=O)cc1O`, the pEC50 was 5.56. `O=[N+]([O-])c1ccccc1S(=O)(=O)Nc1cccc2cccnc12` gave a pEC50 of 5.12. In the case of `N#Cc1ccc(N/N=C/c2cn(-c3ccccc3)nc2-c2ccccc2)c([N+](=O)[O-])c1`, the EC50 was > 80 µM (inactive). With `Cc1sc(NC(=O)c2cc(-c3ccc(Cl)cc3)nc3ccccc23)c(C(N)=O)c1C` the EC50 was “inactive”. `O=C(c1ccc(Br)cc1)C(CN1CCOCC1)c1ccccc1` (stereo unspecified) was tested, and the pEC50 was 5.06. `CC1CCC/C=C/C(=O)c2c(O)cc(O)cc2CC(=O)O1` (stereo unspecified) was tested, and the EC50 was > 80 µM (inactive). `O=C(CSc1ccc2ccccc2c1)NCCc1ccc(O)c(O)c1` gave a pEC50 of 5.07. With `O=C(CCl)Nc1cc(S(=O)(=O)N2CCCCCC2)ccc1Cl` the EC50 was > 80 µM (inactive). `CN1/C(=C\C(=O)COC(=O)c2ccc(O)c(O)c2)C(C)(C)c2ccccc21` gave a pEC50 of 5.18. For `COc1ccc(N=c2oc3c(OC)cccc3cc2C(=O)NCc2ccco2)cc1OC`, the EC50 was > 80 µM (inactive). `O=C(/C=C/c1cccnc1)c1ccc(NC(=O)c2cccc(Br)c2)cc1` was tested, and the EC50 was “inactive”. Work on `COc1c(Cl)cc(Cl)cc1/C=C/C(=O)c1ccc(NC(=O)c2cccs2)cc1` yielded a pEC50 of 5.33. Molecule `Oc1ccc(CN2CCC(Cc3ccccc3)CC2)c2cccnc12` has a pEC50 of 5.27. `CCOC(=O)c1c(NC(C)=O)sc2c1CCC(C=O)=C2Sc1ccccc1` was tested, and the pEC50 was 5.15. `C=CCN1C(=O)/C(=C/c2ccc3c(c2)CCCN3CCC)C(=O)NC1=S` showed a pEC50 of 4.85. Molecule `Cc1cc(NC(=O)CCS(=O)(=O)c2nc(-c3ccccc3)cc(C(F)(F)F)n2)no1` has a pEC50 of 5.13. Molecule `CN(C)S(=O)(=O)c1cccc(NC(=O)CSc2cccc3cccnc23)c1` has a pEC50 of 5.12. In the case of `Cc1cccc(-n2c(/C=C/c3ccc([N+](=O)[O-])o3)nc3ccccc3c2=O)c1`, the pEC50 was 4.93. Work on `COc1cc(SC#N)ccc1N=Cc1c(C)[nH]n(-c2ccc(Cl)cc2)c1=O` yielded a pEC50 of 4.92. In the case of `O=[N+]([O-])c1ccc(Sc2cccc3cccnc23)c([N+](=O)[O-])c1`, the EC50 was > 80 µM (inactive). For `CCOc1ccc2c(c1)C(=NNC(=O)c1ccncc1)c1cc(OCC)ccc1-2`, the pEC50 was 5.06. In the case of `Cc1ccc(S(=O)(=O)N(C(=O)c2ccncc2)c2ccc(OC(=O)c3ccncc3)c3ccccc23)c(C)c1`, the pEC50 was 4.78. `C/C(=N\NC(=O)C(C)Oc1ccc([N+](=O)[O-])cc1)c1ccccn1` (stereo unspecified) was tested, and the pEC50 was 5.00. `O=C(Nc1ccc2oc(-c3ccc4ccccc4c3)nc2c1)c1ccc2c(c1)OCCO2` showed a pEC50 of 4.70. `COc1cc(CN2CCN(c3cc(C)ccc3C)CC2)ccc1O` was tested, and the pEC50 was 4.93. Work on `O=C(/C=C/Sc1ccccc1)c1ccccc1` yielded a pEC50 of 5.16. In the case of `COc1ccc(/C=C/C(=O)Oc2ccc(C)cc2)cc1`, the EC50 was “inactive”. In the case of `COc1ccc(N2CCN(Cc3cc(=O)oc4cc(-c5ccccc5)c(O)cc34)CC2)cc1`, the EC50 was > 80 µM (inactive). In the case of `O=C1C=CC(=O)C(C2=C3C(=O)N(CCc4ccccc4)CC(=O)N3CCC2)=C1`, the pEC50 was 5.00. Molecule `COc1cc([C@H]2c3[nH]c4ccccc4c3C[C@H]3C(=O)N4[C@@H](c5cc(OC)c(OC)c(OC)c5)c5[nH]c6ccccc6c5C[C@H]4C(=O)N23)cc(OC)c1OC` has a pEC50 of 4.95. `Oc1[nH]c2ccc(Br)cc2c1N=NC(=S)N1CCOCC1` gave a pEC50 of 5.37. `O=C(Nc1nc(-c2ccccn2)cs1)c1ccc(Br)s1` gave a pEC50 of 5.08. Work on `Cc1ccc(S(=O)(=O)Nc2cccc3cccnc23)c([N+](=O)[O-])c1` yielded a pEC50 of 5.14. In the case of `Cc1ccc(CS(=O)(=O)c2ncc(Cl)c(C(=O)Nc3nnc(C(C)C)s3)n2)cc1`, the EC50 was > 80 µM (inactive). In the case of `CCOc1ccc(-n2c(C)cc(C(=O)CCl)c2C)cc1`, the pEC50 was 5.16. With `Cc1ccn2cc(-c3ccc(O)c(O)c3)nc2c1` the pEC50 was 5.27. For `O=c1c2ccccc2nc(/C=C/c2ccc([N+](=O)[O-])o2)n1-c1ccc(O)cc1`, the pEC50 was 4.88. Work on `O=C(NCc1cccnc1)/C(=C/c1ccc(-c2cccc(Cl)c2)o1)S(=O)(=O)c1ccccc1` yielded a pEC50 of 4.98. `O=C(C=C=Nc1ccccc1)C(=O)N=C=Cc1ccccc1` was tested, and the pEC50 was 5.24. Work on `Cc1c(C#N)c(NC(=O)CCl)n(Cc2ccccc2)c1C` yielded a pEC50 of 4.84. `O=C(Nc1nc2ccc(F)cc2s1)c1ccccn1` was tested, and the pEC50 was 5.15. `COc1ccc(OC)c(Nc2nc(-c3ccc(O)c(O)c3)cs2)c1` showed a pEC50 of 5.81. `Cc1noc2ncnc(Sc3ccc(Cl)cc3)c12` gave a pEC50 of 5.15. With `C=C1C(=O)C=C[C@]2(C)C[C@@H]3OC(=O)[C@](C)(O)[C@H]3C[C@@H]12` the pEC50 was 4.90. Work on `CCc1ccc2c(c1)C1(NN=C(c3ccccc3)S1)C(=O)N2` (stereo unspecified) yielded a pEC50 of 5.47. In the case of `CCc1nnc(NC(=O)c2nc(S(=O)(=O)Cc3ccc(C)cc3)ncc2Cl)s1`, the EC50 was > 80 µM (inactive). Molecule `Cc1c(C(=O)c2cccc3ccccc23)c2cccc3c2n1[C@H](CN1CCOCC1)CO3` has a pEC50 of 4.91. In the case of `CCOC(=O)c1ccc(N2C(=O)C=CC2=O)cc1`, the EC50 was > 80 µM (inactive). For `COCc1cc(C)nc(OCC(=O)N/N=C/c2ccc(-c3cc([N+](=O)[O-])ccc3Cl)o2)c1C#N`, the pEC50 was 4.84. `CCCOc1ccc(N2C(=O)CC(N(O)c3ccccc3)C2=O)cc1` (stereo unspecified) gave a pEC50 of 5.14. `CC1=CC(C)(C)Nc2ccc(OC(=O)CN3C(=O)C4CCCCC4C3=O)cc21` (stereo unspecified) showed a pEC50 of 5.09. `S=C1SCN(CC2CC2)CN1CC1CC1` was tested, and the EC50 was “inactive”. `O=C1NC(=O)N(c2ccccc2)C(=O)/C1=C\C=C\c1ccccc1` showed a pEC50 of 5.35. Work on `Cc1ccc(C)c(N=Cc2c(O)c3ccccc3oc2=O)c1` yielded a pEC50 of 5.20. For `COc1cccc(-n2c(SCC(=O)N3CCc4ccccc43)nnc2-c2c[nH]c3ccccc23)c1`, the EC50 was > 80 µM (inactive). With `COC(=O)c1cc(=O)n(CCc2ccc(OC)cc2)c(=Nc2ccc(F)c(Cl)c2)s1` the EC50 was “inactive”. Molecule `O=C(NC1CCCC1)C(c1ccc(F)cc1)N(Cc1ccc(F)cc1)C(=O)CCl` (stereo unspecified) has a pEC50 of 5.03. Molecule `O=C(Oc1c(CN2CCOCC2)cc(Cl)c2cccnc12)c1ccccc1F` has a pEC50 of 4.74. In the case of `COC(=O)c1ccc(C(=O)OC)c(NC(=O)CSc2cccc[n+]2[O-])c1`, the EC50 was “inactive”. `N#CC(C#N)=C1C=CC=CN1/C(=C\c1ccccc1)C(=O)c1cccs1` was tested, and the EC50 was > 80 µM (inactive). Work on `Cc1cc(N/N=C/c2ccccc2[N+](=O)[O-])nc(-n2nc(C)cc2C)n1` yielded a pEC50 of 5.13. `C=CCn1nc([N+](=O)[O-])nc1Sc1cccc2cccnc12` was tested, and the pEC50 was 5.18. `COc1cc([N+](=O)[O-])cc(/C=N/NC(=O)c2ccc(NC(=O)c3ccc(C)cc3)cc2)c1O` gave a pEC50 of 4.91. In the case of `O=C(NC1CCCC1)C(c1ccc(F)cc1)N(Cc1ccc(Cl)cc1)C(=O)CCl` (stereo unspecified), the pEC50 was 5.11. In the case of `C=CCSC(=C(C#N)C#N)c1cc2c([nH]1)CCCC2`, the EC50 was > 80 µM (inactive). `Oc1ccc(-c2cn3ccccc3n2)cc1O` was tested, and the EC50 was “inactive”. `COc1ccccc1N1CCN(/N=C/c2ccc(O)c(O)c2)CC1` was tested, and the pEC50 was 5.63. Molecule `CC(=O)c1cccc(NC(=O)CSc2ncc(C(=O)Nc3ccccc3)c(=O)n2C)c1` has a pEC50 of 5.14. `CCOc1cc(NC(=O)CCl)c(OCC)cc1NC(=O)CCl` was tested, and the EC50 was “inactive”. For `CC1(C)C=Cc2c(c3c(c4c(=O)c(-c5ccc(O)cc5)coc24)OC(C)(C)CC3)O1`, the pEC50 was 4.84. Molecule `O=C1Nc2ccccc2/C1=C\C(=O)c1ccccc1` has a pEC50 of 4.85. `CCOC(=O)C(=CNc1nc(-c2ccccc2)c(C(=O)Nc2ccc(-c3ccccc3)cc2)s1)C(=O)OCC` was tested, and the EC50 was “inactive”. In the case of `CCc1cc2c(=O)[nH]c(-c3ccccn3)nc2s1`, the pEC50 was 5.58. In the case of `COc1ccc(-n2nc(C#N)c(Cl)cc2=O)cc1`, the pEC50 was 5.49. Work on `Cc1noc2ncnc(Sc3ccc(Br)cc3)c12` yielded a pEC50 of 5.03. In the case of `O=C(CCC(=O)Nc1ccc(Cl)cc1Cl)N/N=C/c1ccc([N+](=O)[O-])o1`, the pEC50 was 4.89. `CC(=O)/C(=N\Nc1ccc(Cl)cc1Cl)Sc1cccc2cccnc12` showed a pEC50 of 5.49. `O=C(Cn1cc(/C=C\[N+](=O)[O-])c2ccccc21)Nc1ccccc1` showed a pEC50 of 5.12. `O=C(Nc1ccc(S(=O)(=O)N2CCCC2)cc1)c1ccc([N+](=O)[O-])o1` gave a pEC50 of 6.09. For `CC(C)c1cccc(-c2ccc3c(c2)S(=O)(=O)c2cccc(C(=O)NCc4ccccc4Cl)c2C3=O)c1`, the pEC50 was 5.35. `O=C1NC(=O)N(CCc2ccc(F)cc2)C(=O)/C1=C/C=C/c1ccccc1` was tested, and the pEC50 was 5.32. `O=C(/C(=N/N=C/c1ccc(O)c(O)c1)c1ccccc1)c1ccccc1` gave a pEC50 of 5.10. `COc1ccc(N=c2oc3ccc(OC)cc3cc2-c2nc3ccccc3[nH]2)cc1` was tested, and the pEC50 was 4.93. `O=c1cc(C(Cl)(Cl)Cl)oc2c1ccc1ccccc12` was tested, and the EC50 was > 80 µM (inactive). `CCOC(=O)/C(=C\c1cccc(O)c1)c1nc2sc(C)c(C)c2c(=O)[nH]1` was tested, and the pEC50 was 4.89.
